Laboratory results as given in patent US20240350456A1, “COMPOSITIONS AND METHODS FOR DIAGNOSING AND TREATING INFLAMMATORY CONDITIONS” (RUTGERS, THE STATE UNIVERSITY OF NEW JERSEY, priority 2023, published 2024).

Assays:
[1] = tested on: human-derived Caco-2 cells; test: In vitro transwell screening in Caco-2 cells, barrier disrupted by Clostridium difficile toxin (TEER and FITC-dextran permeability); assay type: cell-based
Source text: FIG. 20A-20B. In vitro screening of metabolites effective against leaky gut. FIG. 20A, Diagram of the in vitro transwell method used to evaluate efficacy of metabolites in protecting the leaky gut in human-derived Caco-2 cells. The luminal compartment represents the food side, and the basolateral the blood side. FIG. 20B, Transepithelial electrical resistance (TEER) measurements, and FITC-dextran measurements, evaluate the leakiness of the tight junction that regulates the pore (top) and leak (bottom) pathways of the gut. Ions (red), small molecules (blue), FITC-dextran (orange).
FIG. 21A-21D. Efficacy of tryptophan and vitamin B3 metabolites in protecting the gut barrier in vitro. FIG. 21A, TEER measurements of metabolites placed on luminal side of transwells for 72 hours. After 48 hours, the barrier was disrupted by the toxin of clostrium difficile (Cdiff). FIG. 21B, Integrated results of area under the curve using data from FIG. 21A. FIG. 21C, FITC-dextran permeability analysis of metabolites applied luminally. FIG. 21D, FITC-dextran permeability analysis of metabolites applied basolaterally.
FIG. 22A-22B. Efficacy of microbiota-derived indole metabolites in protecting the gut barrier. FIG. 22A, Integrated results of TEER measurements of metabolites placed on luminal side of transwells for 72 hours. After 48 hours, the barrier was disrupted by the toxin of clostrium difficile (Cdiff) FIG. 22B, FITC-dextran permeability analysis of metabolites from FIG. 22A applied luminally.
To perform in vitro screening of the metabolites effective against leaky gut, an in vitro transwell method was used. (FIG. 20A) The efficacy of these metabolites in protecting the leaky gut was analyzed in human-derived Caco-2 cells. Transepithelial electrical resistance (TEER) measurements evaluates the leakiness of the tight junction that regulates the pore (FIG. 20B, top) and leak (FIG. 20B, bottom) pathways of the gut. The higher the TEER, the less permeable the junction is to the movement of ions and small molecules. FITC-dextran is a large polysaccharide with a fluorescent moiety, typically used as a probe to assess the leakiness of the tight junction to large molecules like dextran. The faster the movement of FITC-dextran from lumen to blood, the greater the permeability.
(FIG. 21A) There was no effect of these metabolites on TEER when applied by themselves. After 48 h, the barrier was disrupted by the toxin of a common “bad” bacteria Clostridium difficile (Cdiff). TEER plummeted with this toxin (TOX, red line) compared to control (Veh, blue line). […] (FIG. 21A)

[2] = tested on: mouse intestinal organoids; test: Organoid permeability assay with 4 kDa FITC-dextran, LPS with or without metabolites; assay type: cell-based; conditions: ex vivo organoids
Experimental: Intestinal organoids were isolated as previously described (Das et al., 2015; Pearce et al., 2018). Briefly, crypts were isolated from small intestine of conventional house C57BL/6 male mice (Taconic Laboratories, Hudson, NY) by shaking in isolation buffer (2 mM EDTA in PBS), then, crypts were harvested, processed, and suspended in crypt culture medium (CCM), which consisted of advanced DMEM/F12 (Life Technologies, Carlsbad, CA) supplemented with serum-free B27 (1:50; Life Technologies), N2 (1:100; Life Technologies), N-acetylcysteine (1 mM; Sigma-Aldrich, St. Louis, MO), recombinant murine epithelial growth factor (EGF, 50 ng/ml; Peprotech, Rocky Hill, NJ), Noggin (100 ng/ml; Peprotech), R-Spondin (500 ng/ml; Peprotech), Glutamax-I supplement (1:100; Life Technologies), penicillin/streptomycin (500 μg/ml; Life Technologies), and HEPES ([…]; Life Technologies). Crypts were resuspended in 70% Matrigel (density ˜450 crypts per dome, 2 domes per well in 24-well plate) and allowed to solidify at 37° C. for 20 min. CCM (1.5 mL) was then added to each well. Cultures were incubated in a humidified incubator at 37° C., and CCM was changed daily. Intestinal organoid treatment with LPS and metabolites
We had 2 series of metabolite-treated organoid experiments, i.e., 1) organoid from conventional C57BL6 mice and 2) Ocln KO and littermate WT control as a gift from Prof. Jerrold Turner (Harvard University). […] Seeding is designated as day 0. On day 3 of culture, the existing media in the wells were completely removed before adding treatments. LPS (1 μg/mL) with or without metabolites, i.e., IPA (0.1 mM) (Li et al., 2021), IAM (200 μM) (Vyhlidalova et al., 2020), MNA (12 ng/ml) (Liu et al., 2015), CARN (20 mM) (Boldyrev et al., 2013) or ASA (1 μM) (Erez et al., 2011) were each added in CCM at known physiological concentrations, incubated for 48 hours, thereafter, organoid was harvested for RNA extraction, and paraformaldehyde fixation for immunostaining.
Permeability assays followed earlier work (Pearce et al., 2018). Briefly, all media were removed and then organoid were incubated with CCM containing 4 kDa FITC-dextran (Sigma-Aldrich, St. Louis, MO, Cat. #46944) at a final concentration of 1.25 µM for 30 minutes at 37° C. and at 5% CO2. […] A fluorescent microscope (Nikon Eclipse TI, NY) at a 10× magnification was used to observe and capture the fluorescence within the lumen of the organoids. Using the same area as the lumen, three different background samples are measured randomly around the lumen. The three background samples measured are averaged and then subtracted from the measured fluorescence of the lumen. […] The quantification of the fluorescence was conducted using the ImageJ 1.53 (NIH, Bethesda, MD).

Compound | TEER, indole metabolites (FIG. 22A) ([1]; applied to the lumen, TOX) | disruption of the gut barrier, fluorescence microscopy (FIG. 11M) [2] | integrated TEER (area under the curve, FIG. 21B) ([1]; luminal, C. difficile toxin) | TEER after C. difficile toxin (FIG. 21A) ([1]; metabolites on luminal side, toxin after 48 h)
NC(=O)Cc1c[nH]c2ccccc12 [Indole-3-acetamide, indole-3-acetamide] | clearly protective against TOX-induced decreases in TEER | prevented disruption of the gut barrier | – | –
C[n+]1cccc(C(N)=O)c1 [Methylnicotinamide, 1-methynicotinamide] | – | prevented disruption of the gut barrier | protected the cells from barrier disruption by TOX | best at preventing the toxin-induced disruption of the barrier
